Our source for the Activity values is ChEMBL document CHEMBL2029326, “Alstiphyllanines I-O, ajmaline type alkaloids from Alstonia macrophylla showing vasorelaxant activity” (Bioorg Med Chem, 2012).

Assay type in all cases: functional, tissue-based
Assay [1] has as its system Aorta. The assay is described as follows: Vasorelaxant activity in Wistar rat endothelium-intact thoracic aortic ring assessed as inhibition of phenylephrine-induced contraction at 30 uM measured after 60 mins.
The test system of assay [2] is Aorta. The assay is described as follows: Vasorelaxant activity in Wistar rat phenylephrine-prestimulated endothelium-denuded thoracic aortic ring assessed as inhibition of CaCl2-induced contraction added before PE-stimulation.
For assay [3], the system named is Aorta. The assay is described as follows: Vasorelaxant activity in Wistar rat endothelium-intact thoracic aortic ring assessed as inhibition of phenylephrine-induced contraction at 100 uM measured after 60 mins.
The subject of assay [4] is Aorta. The assay can be described thus: Vasorelaxant activity in Wistar rat endothelium-denuded thoracic aortic ring assessed as inhibition of KCl-induced contraction at 30 uM pretreated for 30 mins measured after 60 mins.
Assay [5] has as its system Aorta. The assay can be described thus: Vasorelaxant activity in Wistar rat endothelium-denuded thoracic aortic ring assessed as inhibition of phenylephrine-induced contraction measured after 60 mins.
Assay [6] has as its system Aorta. The assay can be described thus: Vasorelaxant activity in Wistar rat endothelium-denuded thoracic aortic ring assessed as inhibition of phenylephrine-induced contraction measured after 60 mins in presence of Bkca inhibitor TEA pretreated for 30 mins before contraction.
In assay [7] the test system is Aorta. The assay is described as follows: Vasorelaxant activity in Wistar rat endothelium-denuded thoracic aortic ring assessed as inhibition of phenylephrine-induced contraction measured after 60 mins in presence of 100 uM L-NMMA.
Assay [8] deals with Aorta. The assay is described as follows: Vasorelaxant activity in Wistar rat endothelium-intact thoracic aortic ring assessed as inhibition of phenylephrine-induced contraction at 30 uM measured within 5 to 15 mins.

Active and inactive are the calls of the source. The calls are words filed in the database; no cut-off is given here.

`C/C=C1/CN2[C@H]3C[C@@]45c6ccccc6N(C(=O)c6cc(OC)c(OC)c(OC)c6)[C@@H]4[C@@H]2C[C@@H]1C3(C(=O)OC)[C@H]5O` (some centres undefined): in the assay with Aorta [1], the result was Active.
As for `C/C=C1\CN2[C@H]3C[C@@]45c6ccccc6N(C(=O)c6ccccc6)[C@@H]4[C@@H]2C[C@@H]1C3(C(=O)OC)[C@H]5O` (some centres undefined), the outcome in the assay on Aorta [1] was Active.
Same read-out and setting: the result for `C/C=C1\CN2[C@H]3C[C@@]45c6ccccc6N(C(=O)c6ccc(OC)c(OC)c6)[C@@H]4[C@@H]2C[C@@H]1C3(C(=O)OC)[C@H]5OC(C)=O` (relative stereo) reads “Active”; that for `C/C=C1\CN2[C@H]3C[C@@]45c6ccccc6N(C)[C@@H]4[C@@H]2C[C@@H]1[C@@]3(C(=O)OC)C5OC(=O)c1ccc(OC)c(OC)c1` (some centres undefined), “Active”; that for `C/C=C1\C[N+]2([O-])[C@H]3C[C@@H]1[C@@]1(C(=O)OC)C(O)[C@]4(C[C@@H]12)c1ccccc1N(C)[C@H]34` (some centres undefined), “Active”.
On the same count and under the same terms, the result for `C/C=C1\CN2[C@H]3C[C@@]45c6ccccc6N(C(=O)c6cc(OC)c(OC)c(OC)c6)[C@@H]4[C@@H]2C[C@@H]1C3(C(=O)OC)[C@H]5O` (some centres undefined) reads “Active”; that for `C/C=C1\CN2[C@H]3C[C@@]45c6ccccc6N(C(=O)c6cc(OC)c(OC)c(OC)c6)[C@@H]4[C@@H]2C[C@@H]1C3(C(=O)OC)[C@H]5OC(C)=O` (some centres undefined), “Active”.
Take `C/C=C1\CN2[C@H]3C[C@@]45c6ccccc6N(C)[C@@H]4[C@@H]2C[C@@H]1[C@@]3(C(=O)OC)C5OC(C)=O` (some centres undefined): the outcome in the assay with Aorta [2], in the assay on Aorta [3], with Aorta [4], with Aorta [5], with Aorta [8] and in the assay on Aorta [1] was Active. Also, the Activity entry in the assay with Aorta [6] was “Dose-dependent effect”. In addition, in the assay with Aorta [7], the outcome was inactive.
As to `C/C=C1\CN2[C@H]3C[C@@]45c6ccccc6N(C)[C@@H]4[C@@H]2C[C@@H]1[C@@]3(C(=O)OC)C5OC(=O)c1cc(OC)c(OC)c(OC)c1` (some centres undefined), in the assay on Aorta [1], the result was Active.
Same read-out and setting: the result for `C/C=C1\CN2[C@H]3C[C@@]45c6ccccc6N(C)[C@@H]4[C@@H]2C[C@@H]1[C@@]3(C(=O)OC)C5O` (some centres undefined) reads “Active”; that for `C/C=C1\CN2[C@H]3C[C@@]45c6ccccc6N(C(=O)c6ccc(OC)c(OC)c6)[C@@H]4[C@@H]2C[C@@H]1C3(C(=O)OC)[C@H]5O` (some centres undefined), “Active”.
Still for that read-out and setting: the result for `C/C=C1\C[N+]2([O-])[C@H]3C[C@@H]1[C@]1(C(=O)OC)[C@@H](OC(C)=O)[C@]4(C[C@@H]12)c1ccccc1N(C)[C@H]34` reads “Active”.
